Measurements from patent US5204311A, “Ethanediimidic acid bis[(arylalkylidene)hydrazide] color-formers” (Minnesota Mining and Manufacturing Company, priority 1991, dated 1993).

Tests used:
Assay type in all cases: physicochemical
[1] = Color of coated CB sheet before imaging; conditions: encapsulated, before imaging (Experiments 6, 7)
Protocol: (§1) The capsule slurry (10 g) was added to 65 g of a 1.5% aqueous sodium alginate solution. The mixture was applied to a coated paper using a bar coater with a 3 mil gap. The coating was allowed to dry at room temperature.
(§2) A 2% solution of the compound 1 in the capsule fill solvent of diethyl phthalate, tributyl phosphate, and cyclohexane was encapsulated by the procedure described in Experiment 5 above. A coating mixture of 10.0 g of capsule slurry, 2.5 g of Dow-620 butadiene-styrene latex, and 62.5 g of 1.5% sodium alginate slurry was coated onto paper by the draw down procedure described above.
A 7.5% solution comprising 5.45% N-(5-octanoylamido-2-metylpentyl)dithiooxamide/N-(5-octanoylamido-4-methylpentyl)dithiooxamide (G') mixture and 2.05% N,N'-di(5-octanoylamido-2-methylpentyl)dithiooxamide/N-(5-octanoylamido-2- methylpentyl)-N'-(5-octanoylamido-4-methylpentyl)dithiooxamide/N,N'-(5-octanoylamido-2-methylpentyl)dithiooxamide (G) mixture in the fill solvent mixture of diethyl phthalate, tributyl phosphate, and cyclohexanone was encapsulated by the procedure described above. A coating mixture of 10.0 g of capsule slurry, 2.5 g of Dow 620 styrene-butadiene latex, and 62.5 g of 1.5% sodium alginate solution was coated onto paper by the draw down procedure described in Experiment 5 above. […]

[2] = Stability in concentrated hydrochloric acid
[3] = Color formation with zinc salts (zinc rosinate)
Protocol: This color observed on the CF sheet was yellow. […] Solubility in a solvent blend of tributyl phosphate, diethyl phthalate and cyclohexane (capsule solvents for preparing carbonless copy-paper) was >9% by weight. Thus the ligand is eminently suitable for encapsulation. The ligand is not volatile at 71 ° C. overnight.
This color observed on the CF sheet was yellow.

[4] = Imaging of CB sheet with encapsulated color-former on Ni-coated CF sheet
Protocol: A precondensate solution was prepared comprising 192 g of formalin, 0.63 g of potassium tetraborate, 72 g of urea, and 328 g of soft water. The formalin was 37% formaldehyde and was added to a 1-liter flask equipped with a stirrer and heating mantle. The potassium tetraborate and urea were then added, and the mixture was heated to 70° C. The reaction was maintained at that temperature for 2.5-3.0 hr. The reaction mixture was then diluted with the water and allowed to cool. The precondensate solution, with about 24% solids, was then ready for use in the encapsulation process.
The precondensate and fill (ethanediimidic acid bis[hydrazide] and carrier or fill solvents) were combined to make capsules according to the following procedure. Sodium chloride (29.54 g) was added to the stirred precondensate solution and the temperature of the solution was adjusted to 20° C. The fill material (215 g) was added and full agitation was begun. After 5 minutes of stirring, 10% hydrochloric acid solution was added over 5 minutes in an amount such that the final pH of the reaction mixture was about 2.8. The reaction mixture was stirred for another 12 minutes. More of the 10% hydrochloric acid solution was added over a period of 12 minutes, in an amount such that the final pH of the solution was about […]. The reaction mixture was stirred at 20° C. for 1 hr, and then at 60° C. for 1-3 hr. The acidic solution was allowed to cool and adjusted to a pH of 7 by addition of concentrated ammonium hydroxide solution (28%). The capsule slurry could then be stored for later use.
as §1, §2
A 7.5% solution comprising 5.45% N-(5-octanoylamido-2-metylpentyl)dithiooxamide/N-(5-octanoylamido-4-methylpentyl)dithiooxamide (G') mixture and 2.05% N,N'-di(5-octanoylamido-2-methylpentyl)dithiooxamide/N-(5-octanoylamido-2- methylpentyl)-N'-(5-octanoylamido-4-methylpentyl)dithiooxamide/N,N'-(5-octanoylamido-2-methylpentyl)dithiooxamide (G) mixture in the fill solvent mixture of diethyl phthalate, tributyl phosphate, and cyclohexanone was encapsulated by the procedure described above. A coating mixture of 10.0 g of capsule slurry, 2.5 g of Dow 620 styrene-butadiene latex, and 62.5 g of 1.5% sodium alginate solution was coated onto paper by the draw down procedure described in Experiment 5 above.
A blend was prepared of 10 g of the capsule slurry containing compound 1, with 10 g of capsule slurry containing 5.45% N-(5-octanoylamido-2-methylpentyl)dithiooxamide/N-(5-octanoylamido-4-methylpentyl)dithiooxamide (G') mixture and 2.05% N,N'-di(5-octanoylamido-2-methylpentyl)dithiooxamide/N-(5-octanoylamido-2- methylpentyl)-N'-(5-octanoylamido-4-methylpentyl)dithiooxamide/N,N'-di(5-octanoylamido-4-methylpentyl)dithiooxamide (G) mixture. […]

[5] = encapsulated, 2% compound 1 fill, 7.5% G'/G fill, or blend of both capsule slurries (Experiment 6)

- color of coated (CB) sheet [1]: neutral in color
- stability in concentrated hydrochloric acid [2]: stable
- color formation when reacted with zinc rosinate [3]: does not form color
- Image Color ([4]; encapsulated (Experiment 6)): yellow
- Hunter coordinate L [4, 5]: 84.0
- Hunter coordinate a [4, 5]: -2.04
- Hunter coordinate b [4, 5]: 31.0
Compound: CC(C)(C)c1cc(C=NN=C(N)C(N)=NN=Cc2cc(C(C)(C)C)cc(C(C)(C)C)c2O)c(O)c(C(C)(C)C)c1 [Compound 1, ethanediimidic acid bis[(3,5-di-t-butylsalicylidene)hydrazide]]
